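Interpolation was linear, between the two tested concentrations surrounding the appropriate level; five concentrations were tested over 48 hours in 96-well plates. Here, GI50 denotes the concentration required for 50% inhibition of growth.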 Active and inactive are the calls of the source. Rule as the data show it: active = GI50 up to about 1.1 µM and inactive = higher.
Tests used:
Assay in all cases: DTP human tumour cell line panel, 48 h
[1] = test system: SK-OV-3
[2] = test system: NCI-H226
[3] = test system: NCI-H522
[4] = test system: SF-295
[5] = test system: MDA-N
[6] = test system: BT-549
[7] = test system: CCRF-CEM
[8] = test system: A498
[9] = test system: SNB-19
[10] = test system: A549
[11] = test system: HCT-15
[12] = test system: NCI/ADR-RES
[13] = test system: RPMI-8226
[14] = test system: OVCAR-8
[15] = test system: MDA-MB-231
[16] = test system: UO-31
[17] = test system: HOP-62
[18] = test system: SNB-75
[19] = test system: LOX IMVI
[20] = test system: SK-MEL-2

SMILES | GI50 [1] | GI50 [2] | GI50 [3] | GI50 [4] | GI50 [5] | GI50 [6] | GI50 [7] | GI50 [8] | GI50 [9] | GI50 [10] | GI50 [11] [µM] | GI50 [12] | GI50 [13] | GI50 [14] | GI50 [15] | GI50 [16] | GI50 [17] | GI50 [18] | GI50 [19] | GI50 [20]
CC(C)=CCC[C@@H](C)C1=C(Nc2ccccc2)C(=O)C(C)=C(O)C1=O | 5.58 µM (inactive) | 3.13 µM (inactive) | 3.03 µM (inactive) | 1.85 µM (inactive) | 4.54 µM (inactive) | 3.67 µM (inactive) | 0.239 µM (active) | 3.34 µM (inactive) | 3.77 µM (inactive) | 2.56 µM (inactive) | 0.875 | 0.815 µM (active) | 9.66 µM (inactive) | 2.1 µM (inactive) | 2.89 µM (inactive) | 3.77 µM (inactive) | 1.81 µM (inactive) | 3.11 µM (inactive) | 3.92 µM (inactive) | 2.52 µM (inactive)
NNC1=NC(=O)NC(=O)C1 | > 100 µM (inactive) | > 100 µM (inactive) | > 100 µM (inactive) | > 100 µM (inactive) | > 100 µM (inactive) | > 100 µM (inactive) | 68.1 µM (inactive) | > 100 µM (inactive) | > 100 µM (inactive) | > 100 µM (inactive) | > 100 | > 100 µM (inactive) | > 100 µM (inactive) | > 100 µM (inactive) | > 100 µM (inactive) | > 100 µM (inactive) | > 100 µM (inactive) | > 100 µM (inactive) | > 100 µM (inactive) | > 100 µM (inactive)
O=C(NC(Nc1ccc(F)cc1)(C(F)(F)F)C(F)(F)F)C(C(F)(F)F)C(F)(F)F | 72.1 µM (inactive) | 50.5 µM (inactive) | 13.2 µM (inactive) | 3.01 µM (inactive) | 9.84 µM (inactive) | 18.7 µM (inactive) | 3.13 µM (inactive) | 62.2 µM (inactive) | 48.2 µM (inactive) | 5.53 µM (inactive) | 2.13 | 4.46 µM (inactive) | 8.11 µM (inactive) | 3.18 µM (inactive) | 52 µM (inactive) | 2.39 µM (inactive) | 99.1 µM (inactive) | 36.5 µM (inactive) | 0.617 µM (active) | 3.63 µM (inactive)

— ChEMBL document CHEMBL1201862, “PubChem BioAssay data set” (2004)
